Experimental data from patent EP0341300B1, “STIMULATION OF STEM CELL GROWTH BY THE BRYOSTATINS” (priority 1987, dated 1989).
“Also recorded” adds a separate entry of the source.

How the values were obtained:
[1] = test system: light-density, adherence-depleted normal human bone marrow cells; test: Granulocyte-macrophage colony formation (CFU-GM) in agar culture; type: cell-based
Description: For determining effective concentrations of bryostatins for granulocyte and macrophage colony formation, light density, adherence-depleted human bone marrow cells can be obtained. The cells can be suspended in a suitable medium, such as supplemented McCoy's 5A medium containing 0.3% agar and plated in 35 mm petri dishes as described in Pike et al, Journal of Cell Physiology, Vol. 76, pp. 77-83, 1970. For the bryostatins which have been tested and found to be effective, i.e., 1, 3, 8 and 9, maximum stimulatory concentrations are between about 10⁻⁷M and 10⁻¹⁰M.
Granulocyte-macrophage colony-forming unit (CFU-GM) colonies were enumerated from light-density, adherence-depleted normal human bone marrow cells. Cells were suspended in supplemented McCoy's 5A medium containing 0.3% agar and plated in 35-mm Petri dishes as described in Pike et al, J. Cell Physiol., Vol. 76, pp. 77-83, 1970. Colonies were enumerated following incubation of bone marrow with cells with rHGM-CSF at 50 ng/ml (Genetics Institute) or bryostatin 1 (●) bryostatin 3(o), bryostatin 8(♢), bryostatin 9(+), or bryostatin 13 (▲) at the concentrations indicated. After 14 days of culture at 37°C in a humidified atmosphere containing 7.5% CO₂, colonies of greater or equal to 50 cells were scored. Representative results from one of several experiments are reported as the mean colony number from quadruplicate samples. SEM is within 10% of the mean number.

[2] = test system: P388 lymphocytic leukemia line; details: reported by others (Pettit et al); test system not named; cited from earlier work
[3] = test system: Normal human peripheral blood neutrophils; test: Neutrophil chemiluminescence with luminol; type: cell-based; details: 15 min incubation, then 10 uM luminol; rhGM-CSF at 50 ng/ml
Description: To determine the effective amount of bryostatin for neutrophil activation, normal human peripheral blood neutrophil cells can be purified on a density gradient such as a Ficoll gradient. Other immune regulatory cells, such as T-lymphocytes and macrophages can be isolated by standard and known techniques. The neutrophils can be suspended in Dulbecco's phosphate-buffered saline supplemented with calcium and magnesium. One way to monitor neutrophil activation is to observe chemiluminescence. The neutrophils can be incubated for about fifteen minutes with the bryostatin. Then luminol (5-amino-2-3-dihydro-1, 4-phthalazinedione) can be added to a concentration of about 10 uM. Chemiluminescence can be measured in a luminometer as described in Allen et al, Biochemistry and Biophysics Research Communications, Vol. 69, pp. […], 1976.
Normal human peripheral blood neutrophils were highly purified on a double Ficoll density gradient and suspended in Dulbecco's phosphate-buffered saline supplemented with Ca²⁺ and Mg²⁺. First, substances to be tested were incubated with the neutrophils for 15 min. At this point 10 uM luminol (5-amino-2, 3-dihydro-1, 4-phtyalazinedione) was added to each sample. The generation of chemiluminescence was measured in a luminometer at 1.25 min intervals for up to 20 min.

K562 target cells = test: Activated neutrophil cytotoxicity, 51Cr release; type: cell-based, human; details: for % specific lysis, 7.5 / % specific lysis, column 15 / % specific lysis, column 30: Bryostatin alone (no neutrophils)
Protocol: Alternatively, neutrophil activation can be assayed using a cytoxicity assay. Purified neutrophils can be incubated at a density of about 3x10⁶ cells per ml with various concentrations of bryostatin. The cells can be washed and added to radiolabelled target cells. K562 tumor cells and ⁵¹ Cr-label can be used to measure cytoxicity. The target cells are preincubated with the radiolabelled substance to effect uptake of the radiolabel. The target cells can be mixed with the neutrophils at various effector to target cell ratios, such as between about 50:1 and 5:1, Release of label from the target cells can be measured either by assaying the supernatant or the cells after centrifugation. Of course, other methods known in the art, such as using other assays of immune regulatory cell cytotoxicity can be used. Bryostatin 1 has activity toward neutrophils at about 10⁻¹⁰ to 10⁻⁷M, with a maximum activation effect on neutrophil cytotoxicity of K562 target cells at a concentration of about 10⁻⁷M.
Furthermore, activation of neutrophil cytotoxicity, as measured by killing of ⁵¹Cr-labeled K562 tumor target cells was also sitmulated by bryostatin 1 (Table 1). Neutrophils were purified as described above. Neutrophils were incubated at a density of 3 x 10⁶ cells per ml first with various concentrations of bryostatin 1 (0.1 uM to 0.1 nM), rhGM-CSF (50 ng/ml), or in medium alone for 2 hr. Following two washes, the cells were added to the ⁵¹Cr-labeled K562 target cells at effector/target cell ratios of 30:1, 15:1, or 7.5:1 as indicated. Control plates containing ⁵¹Cr-labeled K562 cells and either bryostatin or medium alone were evaluated to determine the spontaneous release of isotope. The plates containing the cells were centrifuged at 250 x g for 2 min and then incubated for 3 hrs at 37°C. One hundred microliters of the supernatant was harvested from each well, and the amount of radioactivity present was determined in a gamma scintillation counter. The maximum release of ⁵¹Cr was determined by assaying supernatant obtained from wells in which the cells were completely lysed with 6 M HCl.
Assessment of neutrophil cytotoxicity induced by bryostatin 1. K562 cells were labeled with […] and adjusted to a concentration of 10³ cells per ml in RPMI 1640 medium. Activated neutrophil cytotoxicity was determined. The results are expressed as the percentage of specific isotope released at the indicated effector/target cell ratio calculated as follows: % specific lysis = [(mean cpm of sample - mean cpm spontaneously released)/(mean cpm maximal -mean cpm spontaneously released)] x 100 [formula] . [formula] Maximum induced cpm released as 7364 ± 149. The maximum mean % specific lysis from triplicate determinations from a representative experiment is shown.

[4] = test system: multi-potential hematopoietic progenitors; test: Continuous 7-day subcutaneous infusion by osmotic micropump in mice; type: in vivo, BDF₁ mice
Protocol: A dose-response stimulatory effect on multi-potential hematopoietic progenitors was noted. The administration of 144 ug/kg/d (max. dose) increased CFU-S, CFU-GM and BFU-E compared to control animals infused with vehicle alone. CFU-S from spleen cells of treated animals were increased 2-fold (19 vs. 39 colonies per 10⁶ cells injected), while bone marrow CFU-S was not altered. Likewise, CFU-GM colonies from spleen cells were increased 3.6-fold (52 vs. 188 per 10⁶ cells injected), and increased 2-fold (73 vs. 150 per 10⁵ nuc. cells) in bone marrow.

normal human bone marrow = test: Clone transfer assay (growth of transferred clones in secondary plates); type: cell-based; details: primary culture 10 nM bryostatin 1 for 4 days; secondary plates bryostatin 1 10 nM or rhGM-CSF 50 ng/ml, 10 further days
Protocol: Assays were performed essentially as described in Metcalf et al, Blood, Vol. 67, pp. 37-45, 1986. Briefly, cultures of normal human bone marrow were initiated in medium containing 10 nM bryostatin 1. Following 4 days of growth, clones of 4-8 cells were carefully removed using a glass pipette to avoid contamination by surrounding cells and transferred to secondary plates containing either rhGM-CSF (50 ng/ml) or bryostatin 1 (10 nM) as the source of CSF). After an additional 10 days of culture, the number of clones that had proliferated to form a colony of 40 cells or more was determined. Further growth was not observed in colonies transferred to plates containing no added CSF. (See Figure 3.)
Each symbol (●) represents a colony. Its height in each column is proportional to the number of cells in that colony. The data directly above sections G of the column represent colonies composed entirely of granulocytic cells. The data above sections GM in the column represent colonies composed of both granulocytic and monocytic cells. No colonies in secondary plates were detected that were composed of macrophage-monocyte cells only. The numerator in the fraction at the top of each column represents the number of colonies that developed in the secondary plate, and the denominator represents the total number of clones transferred.

[5] = test system: early BFU-E and late CFU-E human erythroid progenitors; test: Erythroid progenitor assay, plasma-clot method with erythropoietin; type: cell-based; details: plasma clots, optimal erythropoietin
Description: Amounts of bryostatin which are effective for stimulating hematopoiesis or neutrophil and other immune regulatory cell activation, can be determined using any of the assays known in the art. For example, early and late erythrocyte progenitors can be enumerated using the plasma clot method described in McLeod et al, Blood, Vol. 44, p. 517, 1974. Stimulation of such erythrocyte progenitors requires the presence of erythropoietin.
Assays for both early (BFU-E) and late (CFU-E) progenitors were enumerated as described in McLeod et al, Blood, Vol. 44, p. 517 (1974) using the plasma-clot method and optimal concentrations of erythropoietin. Bryostatin 1 stimulated both early BFU-E and late CFU-E human erythroid progenitors growth in plasma clots. The maximal stimulatory concentration was between 1 and 10 pM, with an inhibitory effect noted at concentrations above 1 nM.

[6] = neutrophils plus 10^-7M, 0.1 µM
[7] = neutrophils plus 10^-8M, 0.01 µM
[8] = neutrophils plus 10^-9M, 0.001 µM
[9] = neutrophils plus 10^-10M, 0.0001 µM

CCC/C=C/C=C/C(=O)O[C@H]1[C@H]2C=C3C[C@H]([C@@H](C)O)OC(=O)C[C@H](O)C[C@@H]4C[C@H](OC(C)=O)C(C)(C)[C@](O)(C[C@@H]5C/C(=C\C(=O)OC)C[C@H](/C=C/C(C)(C)[C@]1(OC(=O)C2)O3)O5)O4 [Bryostatin 3, bryostatin 3]
granulocyte-macrophage colony stimulating activity (in words) ([1]; 14 days of culture): clearly less potent than bryostatin 1 or 8

CCCC(=O)O[C@H]1/C(=C/C(=O)OC)C[C@H]2C[C@H]([C@@H](C)O)OC(=O)C[C@H](O)C[C@@H]3C[C@H](OC(C)=O)C(C)(C)[C@](O)(C[C@@H]4C/C(=C/C(=O)OC)C[C@H](/C=C/C(C)(C)[C@]1(O)O2)O4)O3 [Bryostatin 9, bryostatin 9]
granulocyte-macrophage colony stimulating activity (in words) ([1]; 14 days of culture): much less potent stimulator; also recorded: weaker stimulator; also recorded: only a weak stimulator

CCCC(=O)O[C@H]1C[C@H]2C[C@@H](O)CC(=O)O[C@@H]([C@H](C)O)C[C@@H]3C/C(=C\C(=O)OC)C[C@@](O)(O3)C(C)(C)/C=C/[C@H]3C/C(=C\C(=O)OC)C[C@@H](C[C@](O)(O2)C1(C)C)O3 [Bryostatin 13, bryostatin 13]
granulocyte-macrophage colony stimulating activity (in words) ([1]; 14 days of culture): totally inactive; also recorded: completely inactive
antineoplastic activity [2]: retain potent antineoplastic activity
activation of neutrophil chemiluminescence [3]: not

bryostatin 1
colony morphology ([1]; 7 and 14 days of culture): primarily mixed granulocyte-macrophage and pure granulocyte colonies
lowest concentration at which colony stimulating activity was observed ([1]; 14 days of culture): 10 pM
maximal effective concentration for stimulation of CFU-GM ([1]; 14 days of culture, colonies of >= 50 cells scored): 1 to 10 nM
concentration of maximum activation effect on neutrophil cytotoxicity of K562 target cells (K562 target cells): about 10⁻⁷ M
% specific lysis, 7.5 (K562 target cells; 10^-7M, 0.1 µM): -0.6%
% specific lysis, column 15 (K562 target cells; 10^-7M, 0.1 µM): 0.3%
% specific lysis, column 30 (K562 target cells; 10^-7M, 0.1 µM): 1.5%
% specific lysis, 7.5 (K562 target cells; 10^-8M, 0.01 µM): 0.3%
% specific lysis, column 15 (K562 target cells; 10^-8M, 0.01 µM): 1.0%
% specific lysis, column 30 (K562 target cells; 10^-8M, 0.01 µM): 0.9%
% specific lysis at effector/target ratio 7.5 (K562 target cells; [6]): 7.8%
% specific lysis at effector/target ratio 15 (K562 target cells; [6]): 18.1%
% specific lysis at effector/target ratio 7.5 (K562 target cells; [7]): 0%
% specific lysis at effector/target ratio 15 (K562 target cells; [7]): 2.4%
% specific lysis at effector/target ratio 30 (K562 target cells; [7]): 8.4%
% specific lysis at effector/target ratio 7.5 (K562 target cells; [8]): 0%
% specific lysis at effector/target ratio 15 (K562 target cells; [8]): 1.8%
% specific lysis at effector/target ratio 30 (K562 target cells; [8]): 0.9%
% specific lysis at effector/target ratio 7.5 (K562 target cells; [9]): 0.9%
% specific lysis at effector/target ratio 15 (K562 target cells; [9]): 1.0%
% specific lysis at effector/target ratio 30 (K562 target cells; [9]): -0.8%
CFU-GM colonies from spleen cells ([4]; 144 ug/kg/d, 7 days): 188 per 10⁶ cells injected
CFU-GM colonies in bone marrow ([4]; 144 ug/kg/d, 7 days): 150 per 10⁵ nuc. cells
CFU-S from spleen cells ([4]; 144 ug/kg/d, 7 days): 39 colonies per 10⁶ cells injected
Erythroid BFU-E colonies from spleen cells ([4]; 144 ug/kg/d, 7 days): 58 per 10⁶ cells
bone marrow BFU-E progenitors ([4]; 144 ug/kg/d, 7 days): no change
bone marrow CFU-S ([4]; 144 ug/kg/d, 7 days): not altered
increase of CFU-GM colonies from spleen cells vs. vehicle control ([4]; 144 ug/kg/d, 7 days): 3.6 fold
increase of CFU-GM colonies in bone marrow vs. vehicle control ([4]; 144 ug/kg/d, 7 days): 2 fold
increase of CFU-S from spleen cells vs. vehicle control ([4]; 144 ug/kg/d, 7 days): 2 fold
increase of erythroid BFU-E colonies from spleen cells vs. vehicle control ([4]; 144 ug/kg/d, 7 days): 2 fold
differential peripheral white blood cell, hemocrit, bone marrow cellularity or spleen weights ([4]; 7-day infusion): not accompanied by a significant change
major organ toxic effects ([4]; infused for 7 days, any of the doses employed): no major organ toxic effects
growth of transferred clones on secondary plates (normal human bone marrow): produced full-size colonies
concentrations with an inhibitory effect on erythroid progenitors [5]: above 1 nM
activation of neutrophil chemiluminescence [3]: potent activator

bryostatin 8
lowest concentration at which colony stimulating activity was observed ([1]; 14 days of culture): 10 pM
